Data reported in publication PMC5557808 (Nature Communications, 2017).
Where a SMILES comes first, the peptide text is derived from it. [ ]: non-standard residue; d: D form. The star is where a group is joined. X1 = CC[N+](CC)(CC(=O)Nc1c(C)cccc1C)Cc1cccc(C(=O)*)c1; Aha = [N-]=[N+]=NCC[C@H](N)C(=O)O

Target: T1, MMP-8 (Homo sapiens, UniProt P22894)
T1 construct: purchased EMD Millipore Corporation (Billerica, MA)
Test: MMP-8 cleavage of soluble PCL conjugates (HPLC decrease of main peak)
Format: biochemical
Conditions: 900 ng/mL MMP-8, 60 min; p < 0.001, t-test
Protocol: Pro-MMPs (e.g., MMP-8, MMP-1, or MMP-9; used at 0.1 mg/mL and >100.0 mU/mg based on the manufacturer’s information) were activated with p-aminophenylmercuric acetate (APMA) (8). For that, a 10 mM stock solution of APMA was freshly prepared in 0.1 M NaOH and a 10:1 (v/v) ratio of the respective proenzyme and the APMA solution (MMP:APMA) was incubated for 3 h at 37 °C. The activity was confirmed using the MMP-8 detection kit (QuickZyme Biosciences, Leiden, the Netherlands). A stock solution (90 µg/mL) of the activated MMP was prepared (used for cleavage studies on the PCL or the fully assembled microparticle-PCL-tastant setup (sensor), in MMP-8 buffer (200 mM NaCl, 50 mM Tris-HCl, 5 mM CaCl2, 1 µM ZnCl2, 0.05% Brij 35 at pH 6.8–7.0). All MMP experiments are described in detail in the Supplementary Methods. […]
in water ( v/v)) and eluent B (0.1 % TFA in 2:3 water-acetonitrile (v/v)) and a gradient from 33 to 80% elu ent B within 30 minutes. UV absorption was r ead at λ = 280 nm or 220 nm. After freezing the samples at -80 °C, fr eeze- drying was performed on a Christ Alpha 1 -4 de vi ce (Martin Christ Gefriertrocknungs anlagen, Osterode am Harz, G e r ma n y) at a desublimers ’ te mperature of - 60 ° C, pressure of 1.030 mbar and processing temperature of 19 °C.
Pro-MMPs (e. g. MMP -8, MMP -1 or MMP-9; adapted to 0.1 mg/mL and > 100.0 mU/mg based on manufacturer information and when appropriate) were activated with APMA 8. For that, a 10 mM stock solution of APMA in 0.1 M NaOH was freshly prepared and a 10:1 (v/v) ratio of the r especti ve proenzyme and APMA solution (MMP:APMA) was incubated for 3 h at 37 °C. The activity was conf ir med using the MMP-8 detection kit (Q uic kZ ym e® Biosciences, Leiden, Netherlands). A stock solution (90 µg/mL) of the activated MMP was prepared (used for cleavage studies on the pr ot eas e-cleavable linker (PCL; e.g. Figure 2) or the fully assemb led microparticle -PCL- t ast ant setup (sensor; e.g. Figure 3) , in MMP -8 buffer (200 mM NaCl, 50 mM Tris-H Cl, 5 mM C aC l2, 1 µM ZnCl2, 0.05 % Brij35 at pH 6.8- 7.0). A ll MMP -8 exp eriments wer e performed as follo ws. 25 µg of the sensor ( see chap ter : Peptide-coupling to beads (Sensor)) in 100 µL MMP-buffer or 1 mg of FP LC -purified and lyophilized PCL as described dissolved 2 mL M MP -buffer resulting in a final concentration of 0.5 mg/ mL substrate was used. […]
Figure 2A , 3, 4B ). […]
(sensor) in co mpar ison to negative controls (the negative controls for the PCL an d sensor exper i men ts were b y incubation without MMP under otherwise identical conditions). The relative d ecreas e of the PCL’s ma in peak was char act er ized by HPLC (PCL) or of the sensor’s fluorescence b y FACS (sensor) in comparison to control. […]

T1 sequence (P22894 101-467): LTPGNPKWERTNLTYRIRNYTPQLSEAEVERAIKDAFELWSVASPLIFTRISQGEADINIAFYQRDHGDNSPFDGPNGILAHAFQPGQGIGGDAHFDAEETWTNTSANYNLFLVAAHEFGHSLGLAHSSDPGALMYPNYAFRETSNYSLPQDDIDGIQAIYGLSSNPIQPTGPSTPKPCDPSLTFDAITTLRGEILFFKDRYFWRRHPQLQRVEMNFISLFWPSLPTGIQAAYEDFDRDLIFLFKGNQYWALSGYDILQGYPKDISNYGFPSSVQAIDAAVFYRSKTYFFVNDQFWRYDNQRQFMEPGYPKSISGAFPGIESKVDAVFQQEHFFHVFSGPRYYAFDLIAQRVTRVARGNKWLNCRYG

CC[C@H](C)[C@H](NC(=O)CNC(=O)[C@H](CCC(N)=O)NC(=O)[C@@H]1CCCN1C(=O)CNC(=O)c1cccc(C[N+](CC)(CC)CC(=O)Nc2c(C)cccc2C)c1)C(=O)N[C@@H](C)C(=O)NCC(=O)N[C@@H](CCC(N)=O)C(=O)N[C@@H](CCN=[N+]=[N-])C(=O)N[C@@H](CCC(N)=O)C(=O)O [ID #1c] (X1-GPQGIAGQ[Aha]Q-OH)
Cleavage by MMP-8 compared with the PCL carboxyfluorescein conjugate (ID #1b): significantly better
